Reference: patent US9028845B2, “Chimeric immunomodulatory compounds and methods of using the same-IV” (Dynavax Technologies Corporation, priority 2001, dated 2015)

Tested on: human PBMCs
Experiment: Human PBMC cytokine response assay (IFN-γ and IFN-α in cell-free medium by ELISA), with or without cPLGA;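 for IFN-α (pg/ml) mean: 20 µg/mL compound for 24 hours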;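 for IFN-γ (pg/ml) mean: 20 µg/mL compound for 24 hours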
Type: cell-based
Settings: for IFN-γ (pg/ml) 28065: donor 28065 (high background), 1000 = outside assay limits; for IFN-α (pg/ml) 28065: donor 28065; for IFN-α (pg/ml) 28066 / IFN-γ (pg/ml) 28066: donor 28066; for IFN-α (pg/ml) 28067 / IFN-γ (pg/ml) 28067: donor 28067; for IFN-α (pg/ml) 28068 / IFN-γ (pg/ml) 28068: donor 28068; for IFN-a (pg/ml) mean / IFN-g (pg/ml) mean: mean of donors 28185-28188; for IFN-a (pg/ml) ×2: mean ×2; for IFN-g (pg/ml) ×4: mean ×4; for immunomodulatory activity (IFN-γ / IFN-α secretion), in words: used alone (no cPLGA); for IFN-α from human PBMC compared with parent oligonucleotide P-17, in words: low doses (e.g., 0.8 ug/ml), four individuals
[1] = 20 ug/ml, 24 h, + PLGA = premixed with 100 μg/ml cPLGA
[2] = mean of donors 28065-28068, 20 ug/ml, 24 h, + PLGA = premixed with 100 μg/ml cPLGA
[3] = Example 58, 0.8 ug/ml, mean of four individuals
[4] = Example 58, 4 ug/ml, mean of four individuals
[5] = Example 58, 20 ug/ml, mean of four individuals
[6] = Table 24, mean of donors 28234-28237
[7] = Table 25, mean of donors 28250-28253
[8] = mean of Donors 3-4, 20 μg/ml, 24 h

(5′-TCGTCGA-3′)2-glycerol-5′-AACGTTC-3′ [Compound C-27]
IFN-γ (pg/ml) 28065 [1]: 475 pg/mL | IFN-α (pg/ml) 28065 [1]: 3 pg/mL | IFN-α (pg/ml) 28066 [1]: 0 pg/mL | IFN-γ (pg/ml) 28066 [1]: 3 pg/mL | IFN-α (pg/ml) 28067 [1]: 24 pg/mL | IFN-γ (pg/ml) 28067 [1]: 24 pg/mL | IFN-α (pg/ml) 28068 [1]: 16 pg/mL | IFN-γ (pg/ml) 28068 [1]: 226 pg/mL | IFN-a (donor 28185, Table 15): 4 pg/mL | IFN-g (donor 28185, Table 15): 49 pg/mL | IFN-a (donor 28186, Table 15): 4 pg/mL | IFN-g (donor 28186, Table 15): 3 pg/mL | IFN-a (donor 28187, Table 15): 39 pg/mL | IFN-g (donor 28187, Table 15): 21 pg/mL | IFN-a (donor 28188, Table 15): 4 pg/mL | IFN-g (donor 28188, Table 15): 3 pg/mL | IFN-α (pg/ml) mean [2]: 11 pg/mL | IFN-γ (pg/ml) mean [2]: 182 pg/mL | IFN-a (pg/ml) mean (Table 15): 13 pg/mL | IFN-g (pg/ml) mean (Table 15): 19 pg/mL | IFN-a (pg/ml) ×2 (Table 15): 25 pg/mL | IFN-g (pg/ml) ×4 (Table 15): 75 pg/mL

HEG-5′-TCGTCG-3′-HEG-5′-ACGTTCG-3′-HEG-5′-AGATGAT-3′-TEG [Compound C-30]
IFN-α (Table 9, donor 28089): 134 pg/mL | IFN-γ (Table 9, donor 28089): 0 pg/mL | IFN-α (Table 9, donor 28090): 29 pg/mL | IFN-γ (Table 9, donor 28090): 6 pg/mL | IFN-α (Table 9, donor 28098): 52 pg/mL | IFN-γ (Table 9, donor 28098): 12 pg/mL | IFN-α (Table 9, donor 28099): 47 pg/mL | IFN-γ (Table 9, donor 28099): 20 pg/mL | IFN-α mean (Table 9, mean of donors): 65 pg/mL | IFN-γ mean (Table 9, mean of donors): 9 pg/mL

5′-TCG-3′-HEG-5′-T-3′ [Compound C-68]
IFN-a (donor 28185, Table 15): 4 pg/mL | IFN-g (donor 28185, Table 15): 0 pg/mL | IFN-a (donor 28186, Table 15): 13 pg/mL | IFN-g (donor 28186, Table 15): 4 pg/mL | IFN-a (donor 28187, Table 15): 25 pg/mL | IFN-g (donor 28187, Table 15): 2 pg/mL | IFN-a (donor 28188, Table 15): 4 pg/mL | IFN-g (donor 28188, Table 15): 1 pg/mL | IFN-a (pg/ml) mean (Table 15): 11 pg/mL | IFN-g (pg/ml) mean (Table 15): 2 pg/mL | IFN-a (pg/ml) ×2 (Table 15): 23 pg/mL | IFN-g (pg/ml) ×4 (Table 15): 7 pg/mL | immunomodulatory activity (IFN-γ / IFN-α secretion), in words: neither CIC was active on its own

(5′-TCGAACGTTCGA-3′ (SEQ ID NO: 155)-HEG)3-trebler-HEG-5′-T-3′ (three copies HEG-trebler branched, HEG-T, chemistry not fully specified) [Compound C-175]
IFN-α (Example 58, 0.8 ug/ml, donor 1): 21783 pg/mL | IFN-α (Example 58, 0.8 ug/ml, donor 2): 16605 pg/mL | IFN-α (Example 58, 0.8 ug/ml, donor 3): 851 pg/mL | IFN-α (Example 58, 0.8 ug/ml, donor 4): 2874 pg/mL | IFN-α mean [3]: 10528 pg/mL | IFN-α (Example 58, 4 ug/ml, donor 1): 7134 pg/mL | IFN-α (Example 58, 4 ug/ml, donor 2): 6779 pg/mL | IFN-α (Example 58, 4 ug/ml, donor 3): 906 pg/mL | IFN-α (Example 58, 4 ug/ml, donor 4): 1951 pg/mL | IFN-α mean [4]: 4193 pg/mL | IFN-α (Example 58, 20 ug/ml, donor 1): 2250 pg/mL | IFN-α (Example 58, 20 ug/ml, donor 2): 732 pg/mL | IFN-α (Example 58, 20 ug/ml, donor 3): 52 pg/mL | IFN-α (Example 58, 20 ug/ml, donor 4): 52 pg/mL | IFN-α mean [5]: 771 pg/mL | IFN-α from human PBMC compared with parent oligonucleotide P-17, in words: induce significantly more IFN-α

(5′-TCGTCGA-3′-HEG)2-glycerol-HEG-5′-AACGTTC-3′ [Compound C-96]
IFN-α (Table 24, donor 28234): 16 pg/mL | IFN-γ (Table 24, donor 28234): 21 pg/mL | IFN-α (Table 24, donor 28235): 120 pg/mL | IFN-γ (Table 24, donor 28235): 239 pg/mL | IFN-α (Table 24, donor 28236): 608 pg/mL | IFN-γ (Table 24, donor 28236): 354 pg/mL | IFN-α (Table 24, donor 28237): 993 pg/mL | IFN-γ (Table 24, donor 28237): 1396 pg/mL | IFN-α mean [6]: 434 pg/mL | IFN-γ mean [6]: 503 pg/mL | IFN-a (donor 28185, Table 15): 2550 pg/mL | IFN-g (donor 28185, Table 15): 163 pg/mL | IFN-a (donor 28186, Table 15): 446 pg/mL | IFN-g (donor 28186, Table 15): 22 pg/mL | IFN-a (donor 28187, Table 15): 118 pg/mL | IFN-g (donor 28187, Table 15): 195 pg/mL | IFN-a (donor 28188, Table 15): 40 pg/mL | IFN-g (donor 28188, Table 15): 12 pg/mL | IFN-a (pg/ml) mean (Table 15): 788 pg/mL | IFN-g (pg/ml) mean (Table 15): 98 pg/mL | IFN-a (pg/ml) ×2 (Table 15): 1577 pg/mL | IFN-g (pg/ml) ×4 (Table 15): 392 pg/mL | IFN-α induction, in words (used alone): induced more IFN-α relative to linear CICs with HEG spacers

(5′-TCGTCGA-3′-TEG)2-glycerol-TEG-5′-TCGTCGA-3′ [Compound C-103]
IFN-α (Table 24, donor 28234): 16 pg/mL | IFN-γ (Table 24, donor 28234): 21 pg/mL | IFN-α (Table 24, donor 28235): 21 pg/mL | IFN-γ (Table 24, donor 28235): 44 pg/mL | IFN-α (Table 24, donor 28236): 126 pg/mL | IFN-γ (Table 24, donor 28236): 250 pg/mL | IFN-α (Table 24, donor 28237): 213 pg/mL | IFN-γ (Table 24, donor 28237): 1854 pg/mL | IFN-α mean [6]: 94 pg/mL | IFN-γ mean [6]: 542 pg/mL | IFN-α induction, in words (used alone): HEG (C-94)>TEG (C-103)>C3 (C-104)=no linker (C-28)

(5′-TCGAACGTTCGA-3′ (SEQ ID NO: 155)-HEG)2-glycerol-HEG-3′-AGCTTGCAAGCT-5′ (SEQ ID NO: 155) (DNA, all phosphorothioate, methylation of C not given here; Three DNA copies joined by HEG spacers and glycerol branching, one copy inverted) [Compound C-174]
IFN-α (Example 58, 0.8 ug/ml, donor 1): 7907 pg/mL | IFN-α (Example 58, 0.8 ug/ml, donor 2): 11198 pg/mL | IFN-α (Example 58, 0.8 ug/ml, donor 3): 998 pg/mL | IFN-α (Example 58, 0.8 ug/ml, donor 4): 1752 pg/mL | IFN-α mean [3]: 5464 pg/mL | IFN-α (Example 58, 4 ug/ml, donor 1): 5601 pg/mL | IFN-α (Example 58, 4 ug/ml, donor 2): 7845 pg/mL | IFN-α (Example 58, 4 ug/ml, donor 3): 1016 pg/mL | IFN-α (Example 58, 4 ug/ml, donor 4): 5895 pg/mL | IFN-α mean [4]: 5089 pg/mL | IFN-α (Example 58, 20 ug/ml, donor 1): 1350 pg/mL | IFN-α (Example 58, 20 ug/ml, donor 2): 1176 pg/mL | IFN-α (Example 58, 20 ug/ml, donor 3): 61 pg/mL | IFN-α (Example 58, 20 ug/ml, donor 4): 837 pg/mL | IFN-α mean [5]: 856 pg/mL | IFN-α from human PBMC compared with parent oligonucleotide P-17, in words: induce significantly more IFN-α

5′-TGACTGTGA-3′-HEG-5′-ACGTTCG-3′-HEG-5′-AGATGAT-3′ [Compound C-53]
IFN-α (Table 11, donor 28042): 0 pg/mL | IFN-γ (Table 11, donor 28042): 39 pg/mL | IFN-α (Table 11, donor 28043): 0 pg/mL | IFN-γ (Table 11, donor 28043): 27 pg/mL | IFN-α (Table 11, donor 28044): 0 pg/mL | IFN-γ (Table 11, donor 28044): 38 pg/mL | IFN-α (Table 11, donor 28045): 5 pg/mL | IFN-γ (Table 11, donor 28045): 26 pg/mL | IFN-α mean (Table 11, mean of donors): 1 pg/mL | IFN-γ mean (Table 11, mean of donors): 32 pg/mL

5′-TCGT-3′-HEG-5′-TCGT-3′-HEG-5′-TCGT-3′-HEG-5′-TCGT-3′-HEG-5′-TCGT-3′ [Compound C-44]
IFN-α (Table 10, donor 28042): 0 pg/mL | IFN-γ (Table 10, donor 28042): 238 pg/mL | IFN-α (Table 10, donor 28043): 12 pg/mL | IFN-γ (Table 10, donor 28043): 359 pg/mL | IFN-α (Table 10, donor 28044): 60 pg/mL | IFN-γ (Table 10, donor 28044): 484 pg/mL | IFN-α (Table 10, donor 28045): 1 pg/mL | IFN-γ (Table 10, donor 28045): 51 pg/mL | IFN-α mean (Table 10, mean of donors): 18 pg/mL | IFN-γ mean (Table 10, mean of donors): 283 pg/mL | activity when formulated with cPLGA, in words (formulated with cPLGA): induced considerable IFN-γ and IFN-α when formulated with cPLGA | IFN-γ induction, in words (used alone): induce IFN-γ when used alone

5′-AGATGAT-3′ [Compound P-4, reference compound]
IFN-α (pg/ml) Donor 3 (Donor 3, 20 μg/ml, 24 h): 0 pg/mL | IFN-γ (pg/ml) Donor 3 (Donor 3, 20 μg/ml, 24 h): 0 pg/mL | IFN-α (pg/ml) Donor 4 (Donor 4, 20 μg/ml, 24 h): 58 pg/mL | IFN-γ (pg/ml) Donor 4 (Donor 4, 20 μg/ml, 24 h): 3 pg/mL | IFN-a (Table 25, donor 28250): 16 pg/mL | IFN-g (Table 25, donor 28250, polynucleotides/spacers at amounts equivalent to the CIC, spacers alone 9 uM): 72 pg/mL | IFN-a (Table 25, donor 28251): 16 pg/mL | IFN-g (Table 25, donor 28251): 1 pg/mL | IFN-a (Table 25, donor 28252): 16 pg/mL | IFN-g (Table 25, donor 28252): 43 pg/mL | IFN-a (Table 25, donor 28253): 16 pg/mL | IFN-g (Table 25, donor 28253): 1 pg/mL | IFN-a mean [7]: 16 pg/mL | IFN-g mean [7]: 29 pg/mL | IFN-γ (pg/ml) 28065 [1]: 93 pg/mL | IFN-α (pg/ml) 28065 [1]: 0 pg/mL | IFN-α (pg/ml) 28066 [1]: 0 pg/mL | IFN-γ (pg/ml) 28066 [1]: 1 pg/mL | IFN-α (pg/ml) 28067 [1]: 9 pg/mL | IFN-γ (pg/ml) 28067 [1]: 1 pg/mL | IFN-α (pg/ml) 28068 [1]: 0 pg/mL | IFN-γ (pg/ml) 28068 [1]: 1 pg/mL | IFN-α (pg/ml) mean [8]: 29 pg/mL | IFN-γ (pg/ml) mean [8]: 1 pg/mL | IFN-α (pg/ml) mean [2]: 2 pg/mL | IFN-γ (pg/ml) mean [2]: 24 pg/mL | immunomodulatory activity (IFN-γ / IFN-α secretion), in words: did not have immunomodulatory activity
